This assay has as its target T1, Adenosine receptor A3 (Homo sapiens, UniProt P0DMS8).
T1 sequence (P0DMS8 whole entry): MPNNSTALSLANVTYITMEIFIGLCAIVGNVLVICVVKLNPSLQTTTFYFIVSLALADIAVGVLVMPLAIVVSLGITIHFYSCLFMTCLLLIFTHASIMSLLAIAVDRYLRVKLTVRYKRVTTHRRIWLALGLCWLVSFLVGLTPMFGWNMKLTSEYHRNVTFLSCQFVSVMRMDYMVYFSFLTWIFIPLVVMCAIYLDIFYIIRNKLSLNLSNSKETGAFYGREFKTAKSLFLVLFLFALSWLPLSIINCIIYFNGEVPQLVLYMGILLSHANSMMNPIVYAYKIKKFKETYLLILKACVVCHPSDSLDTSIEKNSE

For the compound `Nc1ccc(CNc2ncnc3c2ncn3[C@@H]2O[C@H](CO)[C@@H](O)[C@H]2O)cc1I` [IABA], the inhibitory constant (Ki) (usually the equilibrium dissociation constant of an inhibitor or competing ligand from its target) was 10 nM.

Source of the values: BindingDB's records for doi:10.1073/pnas.90.21.10365 (Merck Research Laboratories, 1993).
